Laboratory results taken from patent US20160038526A1, “TREATMENT OF PROSTATE CANCER” (THOMAS JEFFERSON UNIVERSITY, priority 2012, published 2016).

Experiments:
Type in all cases: cell-based
[1] = system: human clinical prostate cancer explants; experiment: Clinical prostate cancers ex vivo in explant organ cultures: viability of epithelium; settings: eight patients, 7 days, N6BAP 5, 10, 25, 50 and 100 μM
From the text: For organ cultures, prostate cancer specimens were obtained during surgery from eight patients with localized or locally advanced prostate cancer undergoing radical prostatectomy and bilateral iliac lymphadenectomy. The specimens are identified in Table 1.
The specimens comprised de-identified excess tissue obtained after the completion of pathology diagnosis. A zero-sample prior to organ culture was formalin-fixed for each individual prostate cancer for the analysis of the nuclear Stat5a/b status. The prostate organ cultures were performed as described earlier (Ahonen et al., Endocrinology (2002), 143:228-238). Briefly, prostate cancer tissue was cut into approximately 1 mm^3 pieces in a plain culture medium and transferred onto lens papers lying on stainless steel grids in petri dishes. […] Tissue explants were cultured in a medium containing the N6BAP or control compound C5 at indicated concentrations (C5: […]; N6BAP: 5, 10, 25, 50 and 100 μM) 7 days, after which the explants were fixed in formalin and analyzed for Stat5a/b activation and viability of prostate cancer epithelial compartment. Viability of the epithelial cells in the prostate cancer explants at the end of the cultures were scored by counting the viable epithelial cells per explant.

Jak2 = biological target: T1, Jak2 (Homo sapiens, UniProt O60674); experiment: Jak2 phosphorylation in CWR22Rv1 cells (immunoprecipitation/Western blot); settings: CWR22Rv1 cells, 25, 50 and 100 μM for 2 h, 10 nM Prl 30 minutes
T1 construct: endogenous in cells; host or cells: CWR22Rv1
Method: CWR22Rv1 cells were starved for 24 h in serum-free medium, treated N6BAP at 25, 50 and 100 μM concentrations for 2 h, followed by stimulation with 10 nM Prl for 30 minutes. Stat5a and Jak2 were immunoprecipitated with anti-Stat5a or anti-Jak2 pAbs. Immunoprecipitates of CWR22Rv1 cells were blotted with anti-PYStat5, anti-Stat5a/b mAb or anti-PY mAb (for Jak2). Whole cell lysates were immunoblotted with anti-actin pAb for loading control. Because SH2-domain of Stat5 mediates the recruitment of Stat5 to the Prl-receptor-Jak2-complex and Stat5 phosphorylation, N6BAP inhibits Prl-induced phosphorylation of Stat5.
The protocol in more detail comprised the following. Cell pellets were solubilized in lysis buffer [10 mM Tris-HCl (pH 7.6), 5 mM EDTA, 50 mM sodium chloride, 30 mM sodium pyrophosphate, 50 mM sodium fluoride, 1 mM sodium orthovanadate, 1% Triton X-100, 1 mM phenylmethylsulfonyl fluoride, 5 μg/mlaprotinin, 1 μg/ml pepstatin A, and 2 μg/ml leupeptin], rotated end-over-end at 4° C. for 60 min, and insoluble material was pelleted at 12,000×g for 30 min at 4° C. The protein concentrations of clarified cell lysates were determined by simplified Bradford method (Bio-Rad Laboratories, Hercules, Calif.). Stat5a, Stat5b and Jak2 were immunoprecipitated from whole cell lysates with anti-Stat5a, anti-Stat5b (4 μl/ml; Millipore, Billerica, Mass.) or anti-Jak2 (Millipore) pAbs. […]

COS-7 (monkey kidney) = experiment: Cell viability assay, COS-7
Method: CWR22Rv1 prostate cancer cells were treated with N6BAP or the control compound C5 (Ctrl) at 25 μM concentration or vehicle for 24 h. Following trypan blue exclusion, the attached viable vs. de-attached dead cells were counted. […] The bars indicate mean±SD of triplicate wells. In another assay, CWR22Rv1, LNCaP and DU145 cells were treated with N6BAP, the control compound C5 (Ctrl) or vehicle at indicated concentrations. The fraction of alive cells was determined by MTS ([…]) metabolic activity assay (CellTiter 96® AQueous Assay kit). The results are shown in FIGS. 9C, 9D and 9E, respectively.
The procedure of Example 9 was followed, substituting cells of the following solid tumor cell lines for the cells treated in Example 9: A549 human lung cancer cells, CAPAN human pancreatic cancer cells, T47D human breast cancer cells, […], A2058 human melanoma and COS-7 monkey fibroblast cell lines.

T1 sequence (O60674 whole entry): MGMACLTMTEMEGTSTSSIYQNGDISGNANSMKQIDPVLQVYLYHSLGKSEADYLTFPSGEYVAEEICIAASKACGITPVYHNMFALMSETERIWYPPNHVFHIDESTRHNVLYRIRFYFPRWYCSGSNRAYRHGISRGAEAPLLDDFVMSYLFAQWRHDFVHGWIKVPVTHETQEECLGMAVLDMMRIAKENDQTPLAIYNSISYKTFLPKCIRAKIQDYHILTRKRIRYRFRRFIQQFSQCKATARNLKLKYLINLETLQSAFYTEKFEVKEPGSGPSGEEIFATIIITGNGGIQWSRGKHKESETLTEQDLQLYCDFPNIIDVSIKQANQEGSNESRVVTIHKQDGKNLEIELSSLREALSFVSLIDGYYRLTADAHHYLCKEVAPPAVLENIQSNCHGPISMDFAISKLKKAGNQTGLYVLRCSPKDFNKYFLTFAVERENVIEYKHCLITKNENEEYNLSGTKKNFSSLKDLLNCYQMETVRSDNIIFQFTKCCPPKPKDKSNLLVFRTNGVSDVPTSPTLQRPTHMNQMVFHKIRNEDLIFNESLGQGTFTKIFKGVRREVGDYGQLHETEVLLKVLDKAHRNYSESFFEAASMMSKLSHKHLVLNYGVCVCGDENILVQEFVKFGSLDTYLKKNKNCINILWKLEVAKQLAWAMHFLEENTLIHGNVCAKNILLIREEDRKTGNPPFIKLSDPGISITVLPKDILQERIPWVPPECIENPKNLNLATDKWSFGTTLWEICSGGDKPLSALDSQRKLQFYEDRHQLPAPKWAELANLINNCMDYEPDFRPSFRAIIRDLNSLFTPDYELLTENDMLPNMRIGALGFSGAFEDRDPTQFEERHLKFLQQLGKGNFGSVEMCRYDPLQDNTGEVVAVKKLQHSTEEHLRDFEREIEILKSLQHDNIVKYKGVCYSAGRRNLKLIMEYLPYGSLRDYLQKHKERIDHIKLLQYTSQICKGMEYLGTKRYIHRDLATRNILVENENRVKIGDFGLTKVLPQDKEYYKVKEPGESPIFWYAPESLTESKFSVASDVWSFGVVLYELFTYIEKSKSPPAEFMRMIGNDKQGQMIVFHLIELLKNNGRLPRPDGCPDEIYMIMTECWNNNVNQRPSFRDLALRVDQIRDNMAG

O=P(O)(O)OC[C@H]1O[C@@H](n2cnc3c(NCc4ccccc4)ncnc32)[C@H](O)[C@@H]1O [N6BAP, N^6-benzyladenosine-5′-monophosphate]
viability of prostate cancer epithelium in explant organ cultures [1]: induced extensive death of prostate cancer epithelium | phosphorylation of Jak2 (Jak2): does not affect phosphorylation of Jak2 | cell viability (COS-7 (monkey kidney)): did not affect the viability
